Test results reported in patent US20070248672A1, “Indole and Azaindole Derivatives with Antitumor Action” (priority 2004, published 2007).
Entries after “also recorded” stand apart in the source; their conditions may differ. Where two headings read alike, the source gives them in different places.

Columns and labels:
[1] = system: HT29/Mit human colon carcinoma xenografts; assay: HT29/Mit human colon carcinoma xenograft, antitumor activity; type: in vivo, athymic Swiss nude mice
From the text: 1.1 Model of HT29/Mit human colon carcinoma xenografts-Antitumor activity Female athymic Swiss nude mice (8-10 weeks old) (Charles River, Calco, Italy) were used for the experiments. The animals were maintained at constant temperature and humidity, and were allowed to eat and drink freely. The experimental protocol was approved by the Ethics Committee for Animal Experimentation of the Istituto Nazionale Tumori of Milan. The antitumour effectiveness of the compounds of the invention under discussion was tested on athymic mouse models implanted with HT29 and/or HT29/Mit tumour cells: this latter variety is highly resistant to topotecan treatment. The tumour cells were implanted in vivo via subcutaneous injection of 10^7 cells taken from in vitro cultures. Randomized groups of five mice with bilateral subcutaneous tumours were used for the experiment. Topotecan or other known antitumour agents (dissolved in distilled water or an appropriate solvent) and the compounds of the invention (dissolved in Cremophor EL: ethanol: saline solution in the proportions 5:5:90, or in an appropriate solvent) were administered orally from the third day, alone or in combination, in agreement with a treatment scheme selected in an appropriate manner depending on the type of compound to be studied. The weight (or volume) of the tumour in treated mice compared to controls is represented graphically on the y-axis against time (x-axis).

[2] = molecular target: Vacuolar ATPase in human osteoclastoma (hOc) (Homo sapiens, UniProt P27449+Q13488); assay: Vacuolar ATPase inhibition in human osteoclastoma (hOc) microsomal fraction; type: biochemical; conditions: 30 min, 37° C.
Description: 1.1 Determination of Vacuolar ATpase Inhibition in Human Osteoclastoma (hOc)
Osteoclast-like giant cells isolated from human osteoclastoma are homogenized using a glass-teflon homogeniser (1000 rpm) and the material is centrifuged for 20 minutes at 6000 g. The resultant pellet is resuspended and centrifuged at 100000 g for 60 minutes to sediment the microsomal fraction. The resultant pellet is resuspended in medium at pH 7.4 and stored under liquid nitrogen.
Inhibition of bafilomycin sensitive ATPase activity is assayed by measuring the release of inorganic phosphate during 30 minutes of incubation, at 37° C., of the human osteoclastoma microsomal fraction in 96-well plates. The reaction medium contains 1 mM ATP, 10 mM Hepes-Tris buffer pH 8, 50 mM KCl, 5 μM valinomycin, 5 μM nigericin, 1 mM CDTA-Tris, 100 μM ammonium molybdate, 0.2 M sucrose and the microsomal fraction (20 μg protein/ml). The reaction is initiated by adding MgSO4 and terminated, after 30 minutes, by adding 4 volumes of the reagent malachite green, prepared according to Chan K., Anal. Biochem. 157, 375-380, 1986.

tumour cells = assay: Antiproliferative effect on tumour cells, combined treatment with known antitumour agents; type: cell-based; conditions: with topotecan, SN38, taxol, doxorubicin and anthracyclines
Description: (§1) The cells (HT29 and HT29/Mit: 40,000 cells/ml, LoVo, LoVo/Dx and HCT116: 50,000 cells/ml) are seeded in 100 μl of the respective culture media in 96-well plates. 24 hours after seeding, an aliquot (10 μl) of drug at the various concentrations is added. In the samples in which the effect of the combination of two compounds is to be tested the inhibitor is added immediately before the cytotoxic. For each dose or combination of doses/drugs the effect of the treatment is determined in 4-8 replicates.
(§2) The Combination Index (C.I.) was determined according to Kern's method, 1988 (who continued from Drewinko B, 1976) (Kem D. H., Cancer Res. 48, 117-121, 1988; Drewinko B., Cancer Biochem. Biophys. 1, 187-195, 1976) by means of the following formula: […], where SFa and SFb are the fractions of cells surviving to treatment with compound a and b, respectively; SFab is the fraction surviving to the combination of compounds a and b. If the result is =1, the interaction between the two compounds is additive; if it is >1, the interaction between the two compounds is synergistic; if it is <1, the interaction between the two compounds is antagonistic.

HT29 cells = assay: Co-treatment with topotecan, HT29 cells (Combination Index according to Kern); type: cell-based, human; conditions: HT29; compound at 4 μM (3 experiments) and 8 μM (2 experiments), subtoxic doses
Description: as §1
(§3) After 72 hours of treatment the antiproliferative effect is evaluated using the sulforhodamine B (SRB) assay: the cells are fixed by adding 25 μl of 50% TCA to each well and left for 1 hour at 4° C. After washing them with water and allowing them to dry, 100 μl of 0.4% SRB in 1% acetic acid are added and left for 30 minutes at room temperature. After 4 washes in 1% acetic acid, they are left to dry then the dye fixed by the proteins is dissolved under basic conditions with 100 μl 10 mM cold Tris and the solution is read using a spectrophotometer at 550 nm.
(§4) Percentage cell growth is calculated as the optical density of treated samples compared to the optical density of controls (untreated cells).
as §2

HT29/Mit cells [3] = assay: Co-treatment with topotecan, HT29/Mit resistant cells (Combination Index according to Kern); type: cell-based, human; conditions: HT29/Mit; compound at non-toxic concentrations 0.01-0.1 μM
Description: as §1, §3, §4, §2

HT29/Mit cells [4] = assay: Antiproliferative activity, 72 h treatment, SRB assay, HT29/Mit resistant line; type: cell-based, human; conditions: Homo sapiens
Description: HT29 and HT29/Mit (line obtained by prolonged exposure to mitoxantrone, and characterised by overexpression of BCRP, which confers cross resistance to topotecan, irinotecan and to its metabolite SN38): maintained in McCoy 5A medium+10% FCS.
2.2 Scheme of the Antiproliferative Activity Experiment (Treatment Time: 72 Hours)
as §1, §3, §4

HepG2 cells = assay: Antiproliferative activity, 48 h treatment, ATPlite luminescence assay, HepG2; type: cell-based, human; conditions: Homo sapiens; HepG2, 48 h treatment; read-out: Antiproliferative activity (IC50 ± S.D.) HepG2 48 h treatment
Description: HepG2: maintained in EMEM medium+10% FCS.
2.3 Scheme of the Antiproliferative Activity Experiment (Treatment Time: 48 Hours)
The cells (concentration: 30,000 cells/ml) are seeded in 90 μl of the respective culture media in 96-well plates. 24 hours after seeding, an aliquot (10 μl) of the drug at the various concentrations is added (for each concentration there are 3 replicates). After 48 hours of treatment the antiproliferative effect is evaluated with a luminescence assay (Perkin Elmer Life Sciences ATPlite):
50 μl of a lysis solution are added to each well followed by an equal volume of a solution containing luciferase and D-luciferin. The ATP present in all the metabolically active cells brings about the transformation reaction of D-luciferin, catalysed by luciferase, to produce a luminescent signal as described in the following scheme: ATP+D-luciferin+O2→Oxyluciferin+AMP+PP1+CO2+Light
The luminescence produced (expressed in counts per second, CPS) is measured by means of a microplate scintillation analyzer (Perkin Elmer Life Sciences Top Count).
Percentage inhibition of luminescence in the treated cells compared to the control is calculated; concentration-response curves are then analysed using Grafit v.5.0.

Vacuolar ATPase in human osteoclastoma (hOc), sequence (P27449 whole entry, looked up): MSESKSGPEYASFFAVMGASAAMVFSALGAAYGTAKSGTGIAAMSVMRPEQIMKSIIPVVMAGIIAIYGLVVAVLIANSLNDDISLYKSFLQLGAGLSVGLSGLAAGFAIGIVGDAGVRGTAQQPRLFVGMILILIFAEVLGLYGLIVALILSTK
Vacuolar ATPase in human osteoclastoma (hOc), sequence (Q13488 whole entry, looked up): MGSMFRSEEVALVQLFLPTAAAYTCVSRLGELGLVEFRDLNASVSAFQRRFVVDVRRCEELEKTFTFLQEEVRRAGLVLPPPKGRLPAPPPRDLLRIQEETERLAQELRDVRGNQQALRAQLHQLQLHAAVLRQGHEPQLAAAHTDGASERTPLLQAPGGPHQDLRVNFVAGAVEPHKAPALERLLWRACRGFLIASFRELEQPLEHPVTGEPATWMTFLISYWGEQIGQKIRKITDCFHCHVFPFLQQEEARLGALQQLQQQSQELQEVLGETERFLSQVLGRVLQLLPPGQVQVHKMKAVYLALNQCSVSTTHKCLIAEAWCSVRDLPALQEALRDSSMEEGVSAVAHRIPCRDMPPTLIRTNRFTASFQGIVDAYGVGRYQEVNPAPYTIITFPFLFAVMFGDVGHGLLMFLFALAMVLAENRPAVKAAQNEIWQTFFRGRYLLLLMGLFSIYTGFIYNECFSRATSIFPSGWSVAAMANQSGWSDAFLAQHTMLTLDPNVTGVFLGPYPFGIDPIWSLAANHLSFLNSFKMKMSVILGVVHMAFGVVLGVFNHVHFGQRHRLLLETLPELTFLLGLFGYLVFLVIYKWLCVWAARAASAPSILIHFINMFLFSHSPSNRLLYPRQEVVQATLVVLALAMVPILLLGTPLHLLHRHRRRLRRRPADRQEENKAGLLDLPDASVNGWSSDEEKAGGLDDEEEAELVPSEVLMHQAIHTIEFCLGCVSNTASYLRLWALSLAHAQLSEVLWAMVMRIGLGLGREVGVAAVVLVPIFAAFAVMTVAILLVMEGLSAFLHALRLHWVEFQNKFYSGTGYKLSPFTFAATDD

`COC(=O)c1[nH]c2cc(OC)c(OC)cc2c1-c1ccc(OC)cc1` [Example 1, 5,6-Dimethoxy-3-(4-methoxy-phenyl)-1H-indole-2-carboxylic acid methyl ester] was tested, and the “antitumoral efficacy of combined administration with topotecan” value ([1]; 30 mg/kg p.o. with topotecan 1 or 2 mg/kg p.o., statistically significant with 1 mg topotecan) was “increased antitumoral efficacy”, the tumor growth inhibition ([1]; administered alone, 30 mg/kg p.o., after 7 days of treatment, statistically significant) was 43% and the IC50 [2] was 500 nM. The “effect in combination with cytotoxic agents” value (tumour cells) was “marked synergistic effects”, the “effect of combination with topotecan (Combination Index according to Kern)” value (HT29 cells) was “clear synergistic effect” and the “effect of co-treatment with topotecan” value (HT29/Mit cells [3]) was “synergism; also recorded: clear synergistic effect”. For the same compound, the IC50 (HT29/Mit cells [4]; HT-29, HT29/Mit, after 72 hours of treatment, range stated for the group, read-out: IC50 values in the resistant line) was 100 to 3000 nM, the IC50 (HT29/Mit cells [4]; HT-29/Mit resistant line, 72 h treatment, read-out: Antiproliferative activity (IC50 ± S.D.) HT-29/Mit) was 1000 ± 900 nM and the IC50 (HepG2 cells) was 24400 ± 7900 nM.
